IC50 data for 1 compound are collected here from paper PMC6423038, “Deferiprone: Pan-selective Histone Lysine Demethylase Inhibition Activity and Structure Activity Relationship Study” (Scientific Reports, 2019).

Assay [1] has as its system MCF-7. The assay is described as follows: Cell viability assay (MTS), antiproliferative activity. The assay is classed as cell-based. The settings on record: Homo sapiens, MCF7, 72 h, Table 4. The protocol:
(§1) To preliminarily profile the bioactivity of these compounds, we adopted a streamlined approach which involved screening against KDM6A at two concentrations and evaluating antiproliferative activity against three representative cell lines – MCF-7 (ER(+) BCa), MDA-MB-231 (TNBC BCa) and Vero (a non-transformed cell line as control).
(§2) The In vitro proliferation assay was performed as reported previously[15],[16]. Detailed description of the protocol used is included in the Supplementary Information.
(§3) Cell Viability Assay. All cell lines were purchased form ATCC (Manassas, VA), and they were routinely cultured in different media recommended by the supplier. MCF-7 cells were cultured in non-phenol red DMEM (Corning, Manassas, VA) fortified with 10% charcoal treated fetal bovine serum (FBS; Atlanta Biologicals, GA) and 0.2 mM glutamine (Corning, Manassas, VA), whereas MDA-MB-231, DU-145, and Vero were cultured in DMEM with 10% FBS. […] After 24 h incubation in 37 °C under 5% CO2, cells were treated with serially diluted ligands with final DMSO concentration of 1% and incubated for additional 72 h. MTS (CellTiter 96 Aqueous One Solution Cell Proliferation Assays, Promega, Madison, WI) was added to each well 2.5 h prior to recording the absorbance at 490 nm.

In assay [2] the test system is MDA-MB-231. The assay is described as above. Type of assay: cell-based. The settings on record: Homo sapiens, 72 h, Table 4. As to the method: as §1, §2, §3
The subject of assay [3] is VERO. Described as above. The assay is classed as cell-based. The settings on record: Chlorocebus sabaeus, 72 h, Table 4. The protocol:
as §1, §2, §3

For assay [4], the target named is KDM5B (Jarid1B) (Homo sapiens, UniProt Q9UGL1). The assay is described as follows: KDM cell-free assay (AlphaScreen, BPS Bioscience).
Chain of KDM5B (Jarid1B) (Q9UGL1 whole entry): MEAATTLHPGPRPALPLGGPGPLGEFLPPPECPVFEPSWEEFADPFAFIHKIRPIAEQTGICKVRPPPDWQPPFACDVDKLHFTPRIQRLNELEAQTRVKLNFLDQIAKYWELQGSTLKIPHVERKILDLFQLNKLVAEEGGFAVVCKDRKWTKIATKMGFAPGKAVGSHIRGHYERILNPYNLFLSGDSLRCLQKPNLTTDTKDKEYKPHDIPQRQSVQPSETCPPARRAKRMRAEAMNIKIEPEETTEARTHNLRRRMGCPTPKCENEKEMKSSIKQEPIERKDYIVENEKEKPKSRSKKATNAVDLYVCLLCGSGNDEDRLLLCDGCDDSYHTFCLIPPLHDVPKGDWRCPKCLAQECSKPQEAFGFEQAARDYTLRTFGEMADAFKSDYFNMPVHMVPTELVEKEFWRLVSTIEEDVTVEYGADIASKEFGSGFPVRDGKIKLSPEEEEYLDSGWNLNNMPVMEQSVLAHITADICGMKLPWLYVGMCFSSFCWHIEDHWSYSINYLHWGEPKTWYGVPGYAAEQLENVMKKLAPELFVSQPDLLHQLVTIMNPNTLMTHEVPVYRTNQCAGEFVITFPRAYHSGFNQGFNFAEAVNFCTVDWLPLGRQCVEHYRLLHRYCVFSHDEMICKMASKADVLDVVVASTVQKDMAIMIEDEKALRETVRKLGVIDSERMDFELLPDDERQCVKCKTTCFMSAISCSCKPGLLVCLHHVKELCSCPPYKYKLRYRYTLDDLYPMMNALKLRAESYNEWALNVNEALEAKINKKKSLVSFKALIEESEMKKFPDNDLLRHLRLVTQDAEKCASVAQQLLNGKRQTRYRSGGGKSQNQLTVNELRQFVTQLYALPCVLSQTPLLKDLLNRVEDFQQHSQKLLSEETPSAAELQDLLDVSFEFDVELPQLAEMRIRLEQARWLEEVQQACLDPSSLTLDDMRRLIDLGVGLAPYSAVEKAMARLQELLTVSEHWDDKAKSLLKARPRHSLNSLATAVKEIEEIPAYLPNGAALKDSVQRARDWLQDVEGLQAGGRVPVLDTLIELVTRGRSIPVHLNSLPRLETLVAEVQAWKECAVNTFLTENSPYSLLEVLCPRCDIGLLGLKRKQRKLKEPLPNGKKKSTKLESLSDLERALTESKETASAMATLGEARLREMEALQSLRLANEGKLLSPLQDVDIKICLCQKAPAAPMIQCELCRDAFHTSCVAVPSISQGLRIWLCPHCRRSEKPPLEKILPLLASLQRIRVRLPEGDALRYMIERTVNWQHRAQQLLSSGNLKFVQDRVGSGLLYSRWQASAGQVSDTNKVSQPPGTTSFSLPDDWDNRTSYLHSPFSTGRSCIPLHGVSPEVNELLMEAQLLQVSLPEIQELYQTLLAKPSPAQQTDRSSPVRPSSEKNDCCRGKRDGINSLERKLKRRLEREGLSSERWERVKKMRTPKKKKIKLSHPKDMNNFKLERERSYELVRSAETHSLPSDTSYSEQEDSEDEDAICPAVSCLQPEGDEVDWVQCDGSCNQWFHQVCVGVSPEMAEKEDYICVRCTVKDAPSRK
The target in assay [5] is KDM7A (JHDM1D) (Homo sapiens, UniProt Q6ZMT4). The experiment in a line: KDM cell-free assay (AlphaScreen, BPS Bioscience).
Chain of KDM7A (JHDM1D) (Q6ZMT4 whole entry): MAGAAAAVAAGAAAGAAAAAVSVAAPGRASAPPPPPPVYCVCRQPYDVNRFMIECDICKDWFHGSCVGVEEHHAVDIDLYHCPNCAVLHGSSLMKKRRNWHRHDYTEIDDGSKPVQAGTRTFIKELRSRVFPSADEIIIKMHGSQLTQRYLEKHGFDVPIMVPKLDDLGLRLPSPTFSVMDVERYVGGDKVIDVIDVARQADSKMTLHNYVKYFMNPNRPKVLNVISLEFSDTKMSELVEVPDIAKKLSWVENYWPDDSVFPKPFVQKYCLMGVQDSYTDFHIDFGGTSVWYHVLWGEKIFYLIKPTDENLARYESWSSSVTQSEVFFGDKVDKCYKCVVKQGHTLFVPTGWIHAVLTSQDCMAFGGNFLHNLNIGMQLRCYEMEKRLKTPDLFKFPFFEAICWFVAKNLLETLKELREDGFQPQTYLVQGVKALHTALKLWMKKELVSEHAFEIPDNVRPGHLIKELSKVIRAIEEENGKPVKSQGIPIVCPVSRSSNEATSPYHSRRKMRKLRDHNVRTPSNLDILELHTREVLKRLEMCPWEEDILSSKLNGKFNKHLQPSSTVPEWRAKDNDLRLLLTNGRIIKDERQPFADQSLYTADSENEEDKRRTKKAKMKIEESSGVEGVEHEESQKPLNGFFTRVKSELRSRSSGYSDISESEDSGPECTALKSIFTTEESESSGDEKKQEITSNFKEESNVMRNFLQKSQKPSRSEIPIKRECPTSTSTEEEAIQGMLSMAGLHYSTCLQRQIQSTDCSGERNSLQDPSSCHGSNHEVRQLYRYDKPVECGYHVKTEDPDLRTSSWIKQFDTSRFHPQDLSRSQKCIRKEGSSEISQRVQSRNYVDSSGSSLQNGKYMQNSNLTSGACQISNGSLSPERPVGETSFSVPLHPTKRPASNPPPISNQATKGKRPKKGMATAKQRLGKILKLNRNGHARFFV
For assay [6], the target named is KDM7B (PHF8) (Homo sapiens, UniProt Q9UPP1). The assay is described as follows: KDM cell-free assay (AlphaScreen, BPS Bioscience).
Chain of KDM7B (PHF8) (Q9UPP1 whole entry): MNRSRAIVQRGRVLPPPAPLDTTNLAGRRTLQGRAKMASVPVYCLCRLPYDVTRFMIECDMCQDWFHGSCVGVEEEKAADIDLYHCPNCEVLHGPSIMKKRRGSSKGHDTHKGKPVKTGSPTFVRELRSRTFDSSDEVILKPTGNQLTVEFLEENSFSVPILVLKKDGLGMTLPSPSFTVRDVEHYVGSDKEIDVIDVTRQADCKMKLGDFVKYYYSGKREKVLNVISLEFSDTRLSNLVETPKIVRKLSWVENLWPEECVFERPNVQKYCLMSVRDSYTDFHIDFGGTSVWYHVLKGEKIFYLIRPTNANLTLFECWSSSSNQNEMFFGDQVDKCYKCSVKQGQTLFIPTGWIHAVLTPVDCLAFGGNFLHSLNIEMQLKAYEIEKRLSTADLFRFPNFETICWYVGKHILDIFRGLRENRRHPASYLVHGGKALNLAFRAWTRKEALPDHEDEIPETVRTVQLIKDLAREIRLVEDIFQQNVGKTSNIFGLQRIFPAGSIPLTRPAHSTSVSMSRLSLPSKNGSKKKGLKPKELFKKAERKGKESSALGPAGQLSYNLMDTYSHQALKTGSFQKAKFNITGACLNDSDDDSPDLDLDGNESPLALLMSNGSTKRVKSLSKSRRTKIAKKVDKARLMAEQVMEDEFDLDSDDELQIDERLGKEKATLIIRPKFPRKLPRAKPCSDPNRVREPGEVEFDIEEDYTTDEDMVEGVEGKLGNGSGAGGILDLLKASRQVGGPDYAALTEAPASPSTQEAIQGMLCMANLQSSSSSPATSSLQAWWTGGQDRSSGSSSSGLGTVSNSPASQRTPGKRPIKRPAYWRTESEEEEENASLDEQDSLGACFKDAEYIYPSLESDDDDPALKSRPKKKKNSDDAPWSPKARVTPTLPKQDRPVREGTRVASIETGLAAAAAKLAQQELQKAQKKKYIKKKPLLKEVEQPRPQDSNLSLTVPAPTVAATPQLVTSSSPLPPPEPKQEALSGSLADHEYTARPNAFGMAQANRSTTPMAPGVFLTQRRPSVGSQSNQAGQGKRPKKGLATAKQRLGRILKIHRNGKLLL

Each structure is given as a SMILES string.

Regarding `Cc1c(O)c(=O)ccn1C` [DFP, Deferiprone], the IC50 in assay [1] was 134 µM; in assay [2] it was 112 µM; in assay [3], 85.9 µM; in assay [4] it was over 25 µM; in assay [5] it was 16.6 µM; in assay [6] it was 15.6 µM.
